Consider four compounds from ChEMBL document CHEMBL1201862, “PubChem BioAssay data set” (2004).

Holding throughout (test): growth of human tumour cells (NCI), 48 h
Assay [1] deals with Hs-578T.
The test system of assay [2] is SNB-75.
The subject of assay [3] is SK-OV-3.
Assay [4] deals with RPMI-8226.
Assay [5] deals with MDA-MB-435.
Assay [6] has as its system SK-MEL-5.
The subject of assay [7] is A549.
The subject of assay [8] is T47D.
Assay [9] deals with RXF 393.
Assay [10] has as its system HCT-15.
Assay [11] relates to A498.
Assay [12] concerns HOP-92.
Assay [13] deals with SK-MEL-28.
Assay [14] concerns LOX IMVI.
In assay [15] the test system is SNB-19.
Assay [16] has as its system OVCAR-3.
Assay [17] relates to 786-0.
The subject of assay [18] is HL-60.
In assay [19] the test system is NCI-H226.
The test system of assay [20] is K562.

The structures appear in SMILES notation.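 Exposure lasted 48 hours, with cells grown in 96-well plates and compounds tested at five concentrations. Here, GI50 denotes the concentration required for 50% inhibition of growth.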 Activity calls are given as the source filed them. No stated cut-off is given here; in the data, active = GI50 up to about 1.1 µM and inactive = higher. Bounds are passed on as bounds.

`Cc1ccc(S(=O)(=O)N(CC(O)COc2ccccc2)c2ccc(F)cc2F)cc1` (stereo not given): the GI50 in assay [1] is 17.3 µM (inactive); in assay [2], 14.8 µM (inactive); in assay [3], 18.7 µM (inactive); in assay [4] it was 13.5 µM (inactive); in [5], 16.1 µM (inactive); in assay [6] it was 14.7 µM (inactive). Moreover, the GI50 was 12.9 µM (inactive) in assay [7]; 17.2 µM (inactive) in assay [8]; 11.9 µM (inactive) in [9]; 17.1 µM in assay [10]; 15.3 µM (inactive) in [11]; 0.122 µM (active) in assay [12]. Besides, the GI50 in assay [13] was 15.8 µM (inactive); in assay [14] it was 14.2 µM (inactive); in [15], 18.1 µM (inactive); in assay [16], 15.3 µM (inactive); in assay [17], 16.8 µM (inactive); in assay [18] it was 15.7 µM (inactive). The GI50 in assay [19] is 18.8 µM (inactive); in assay [20] it was 34.8 µM (inactive).
`Nc1ccc(S(=O)(=O)c2ccc(/N=[N+](\[O-])c3ccc(S(=O)(=O)c4ccc(N)cc4)cc3)cc2)cc1`: the GI50 in assay [1] is 8.39 µM (inactive); in assay [2] it was 8.02 µM (inactive); in [3] it was 24.9 µM (inactive); in [4] it was > 100 µM (inactive); in [5], > 100 µM (inactive); in assay [6] it was 44 µM (inactive). Also, the GI50 in [7] is > 100 µM (inactive); in assay [8] it was > 48 µM (inactive); in [9], 7.66 µM (inactive); in [10], more than 100 µM; in assay [11], 30.8 µM (inactive); in assay [12] it was 10.1 µM (inactive). The GI50 was > 80.4 µM (inactive) in assay [13]; > 60.7 µM (inactive) in assay [14]; 44.4 µM (inactive) in assay [15]; 31 µM (inactive) in [16]; 18.5 µM (inactive) in assay [17]; > 100 µM (inactive) in assay [18]. In addition, the GI50 in assay [19] is 14.6 µM (inactive); in assay [20], > 100 µM (inactive).
Turning to `C[C@H]1CC(=O)[C@@]2(O)C#C/C=C\C#C[C@@H]3Nc4c(cc(O)c5c4C(=O)c4ccccc4C5=O)[C@]24O[C@]314`, the GI50 in assay [1] was 0.811 µM (active); in assay [2] it was 0.0316 µM (active); in [3], 0.0171 µM (active); in [4], 0.00356 µM (active); in assay [5] it was 0.0509 µM (active); in assay [6], 0.00266 µM (active). Further, the GI50 was 0.00543 µM (active) in assay [7]; 0.0305 µM (active) in assay [8]; 0.0114 µM (active) in [9]; 0.0248 µM in [10]; 0.0586 µM (active) in assay [11]; 0.0157 µM (active) in assay [12]. Besides, the GI50 in assay [13] is 0.0338 µM (active); in [14], 0.0175 µM (active); in assay [15], 0.0199 µM (active); in assay [16], 0.136 µM (active); in assay [17] it was 0.0128 µM (active); in assay [18] it was < 0.001 µM (active). Moreover, the GI50 in [19] was 0.00356 µM (active); in assay [20] it was 0.0118 µM (active).
Take `COC(=O)C1(Cc2ccc(C)cc2)Cc2c(C)cccc2C1=O` (stereo not given): the GI50 in [1] was 15.9 µM (inactive); in [2], 26.4 µM (inactive); in assay [3], 14.5 µM (inactive); in assay [4], 15.1 µM (inactive); in assay [5], 3.08 µM (inactive); in [6], 12.9 µM (inactive). For the same compound, the GI50 in assay [7] was 18.2 µM (inactive); in assay [8], 18.5 µM (inactive); in assay [9] it was 9.71 µM (inactive); in [10] it was 14.2 µM; in [11], 13.7 µM (inactive); in assay [12] it was 16.6 µM (inactive). Further, the GI50 in assay [13] is 26 µM (inactive); in assay [14], 18.9 µM (inactive); in assay [15], 17.7 µM (inactive); in assay [16], 11.7 µM (inactive); in [17] it was 20.5 µM (inactive); in [18] it was 5.6 µM (inactive). Also, the GI50 in [19] was 15.3 µM (inactive); in assay [20] it was 8.04 µM (inactive).
